Values of other authors in patent US11833118B2 (priority 2016, dated 2023).

Legend:
[1] = not given; remark: listed apart in the source

SMILES	crossing of the blood-brain barrier relative to Δ9THC (in vivo)	psychoactivity relative to Δ9THC (man)	Vapor Pressure at 25° C. [1] [mm Hg]	Vapor Pressure at 53.8° C. [1] [mm Hg]
CCCCCc1cc(O)c2c(c1)OC(C)(C)[C@@H]1CCC(CO)=C[C@@H]21 [11-hydroxy-Δ9THC]	more rapidly crosses the blood-brain barrier	more psychoactive than Δ9THC	–	–
O [Water]	–	–	23.8	111.4
C=C(C)[C@H]1CC=C(C)CC1 [d-Limonene]	–	–	2.0	10
